Laboratory results taken from US10537104B2, “Insecticide mixtures comprising loline alkaloids” (SYNGENTA PARTICIPATIONS AG, priority 2016, dated 2020).

Experiments:
Myzus persicae = experiment: Tests against Myzus persicae: sprayed sunflower leaf discs, mortality; type: in vivo; settings: 6 days after infestation
Text: (§1) A synergistic effect exists whenever the action of an active ingredient combination is greater than the sum of the actions of the individual components. The action to be expected E for a given active ingredient combination obeys the so-called COLBY formula and can be calculated as follows (COLBY, S. R. “Calculating synergistic and antagonistic responses of herbicide combination”. Weeds, Vol. 15, pages 20-22 1967):
(§2) According to Colby, the expected (additive) action of active ingredients A+B using p+q ppm of active ingredient is
(§3) If the action actually observed O is greater than the expected action E, then the action of the combination is super-additive, i.e. there is a synergistic effect. In mathematical terms, synergism corresponds to a positive value for the difference of (O-E). In the case of purely complementary addition of activities (expected activity), said difference (O-E) is zero. A negative value of said difference (O-E) signals a loss of activity compared to the expected activity.
Component (A1) is a mixture of NAL, NFL and NANL in a weight ratio of about approximately 1:4:2. Stock solutions of thiamethoxam and flonicamid were prepared respectively by dissolving the technical active ingredient in DMSO. The aqueous test solutions were prepared by mixing together the appropriate stock solutions to the desired concentrations.
Tests Against Myzus persicae
Sunflower leaf discs were placed on agar in a 24-well microtiter plate and sprayed with aqueous test solutions prepared from DMSO stock solutions. After drying, the leaf discs were infested with an aphid population of mixed ages. The samples were assessed for mortality 6 days after infestation.

Thrips tabaci = experiment: Tests against Thrips tabaci: sprayed sunflower leaf discs, mortality; type: in vivo; settings: 6 days after infestation
Text: as §1, §2, §3
Component (A1) is a mixture of NAL, NFL and NANL in a weight ratio of about approximately 1:4:2. […]
Sunflower leaf discs were placed on agar in 24-well microtiter plates and sprayed with aqueous test solutions prepared from DMSO stock solutions. […] The samples were assessed for mortality 6 days after infestation.

| SMILES | % Mortality Measured (Myzus persicae; flonicamid 3.125 ppm alone) [%] | % Mortality Measured (Myzus persicae; flonicamid 6.25 ppm alone) [%] | % Mortality Measured (Myzus persicae; flonicamid 12.5 ppm alone) [%] | % Mortality Measured (Thrips tabaci; flonicamid 100 ppm alone) [%] | % Mortality Measured (Thrips tabaci; flonicamid 200 ppm alone) [%] | mortality at 0.4 ppm (Myzus persicae; Myzus persicae, foliar, 144 h, thiamethoxam 0.4 ppm alone, read-out: % Mortality Measured) [%] | mortality at 0.8 ppm (Myzus persicae; Myzus persicae, foliar, 144 h, thiamethoxam 0.8 ppm alone, read-out: % Mortality Measured) [%] | mortality at 1.6 ppm (Myzus persicae; Myzus persicae, foliar, 144 h, thiamethoxam 1.6 ppm alone, read-out: % Mortality Measured) [%] |
| --- | --- | --- | --- | --- | --- | --- | --- | --- |
| N#CCNC(=O)c1cnccc1C(F)(F)F [Flonicamid, flonicamid] | 0 | 65 | 90 | 0 | 0 | – | – | – |
| CN1COCN(Cc2cnc(Cl)s2)/C1=N\[N+](=O)[O-] [Thiamethoxam, thiamethoxam] | – | – | – | – | – | 0 | 0 | 45 |
